According to patent publication US11559575B2, “Multi-epitopic peptide compounds and vaccines against leishmaniasis” (INSTITUT DE RECHERCHE POUR LE DEVELOPPEMENT, priority 2018, dated 2023):
Entries after “also recorded” stand apart in the source; their conditions may differ.

What was measured:
HLA alleles of class I = experiment: Affinity of epitopes for HLA alleles of class I; assay type: binding, human; settings: for Concatenation affinity allele CII: PSA KC-2.6 Peptide CII; for Concatenation affinity for HLA alleles of class I: LmlRAB-IIB Peptide CII
From the text: (§1) The multiepitopic peptide compounds (24 to 40-mer), having a high affinity with a maximized number of HLA molecules of class I and of class II, such as the affinities for the alleles HLA of class I and HLA of class II of the epitopes in the peptides of the sequences SEQ ID NO: 22, 23, 65, 66, 69, 73, 77, 96, 97, 137, 138, and 157, 185, have a high immunoprevalent potential corresponding to an optimal vaccine coverage, in particular for the populations concerned. The degree of coverage of the peptide compounds of the invention show a very high added value compared with the peptides of the prior art.

HLA alleles of class II = experiment: Affinity of epitopes for HLA alleles of class II; assay type: binding, human; settings: for Concatenation affinity for the HLA alleles of class II: H2B-II peptides; for Concatenation affinity for the HLA alleles of class II / Affinity HLA alleles of class II: Table 1; for Affinity HLA alleles of class II: H2B-II core epitopes
From the text: as §1

ARSARSGEGY (listed as Leishmania infantum) [SEQ ID NO: 151]
Concatenation affinity allele CII (HLA alleles of class I; Table 3): HLA-B*15:01

ARSGEGYFL (listed as Leishmania infantum) [SEQ ID NO: 152]
Concatenation affinity allele CII (HLA alleles of class I; Table 3): HLA-B*39:01

DVHYSEVSA (Leishmania major) [SEQ ID NO: 128]
Concatenation affinity for HLA alleles of class I (HLA alleles of class I; Table 2): HLA-A*68*02

ENAIVTSRK (Leishmania major) [SEQ ID NO: 129]
Concatenation affinity for HLA alleles of class I (HLA alleles of class I; Table 2): HLA-A*68:01

EVFDLFTDV (Leishmania major) [SEQ ID NO: 120]
Affinity for HLA alleles of class I (HLA alleles of class I; LmlRAB-IIB core, Table 2): HLA-A*02:03,; also recorded: HLA-A*02:06,; also recorded: HLA-A*68:02

FDLFTDVHY (Leishmania major) [SEQ ID NO: 130]
Concatenation affinity for HLA alleles of class I (HLA alleles of class I; Table 2): HLA-A*02:01, HLA-B*35:01

FLTDEKTSL (listed as Leishmania infantum) [SEQ ID NO: 146]
Affinity HLA alleles of class I (HLA alleles of class I; PSA KC-2.6 core, Table 3): HLA-A*02:01,; also recorded: HLA-A*02:03,; also recorded: HLA-A*02:06,; also recorded: HLA-B*39:01

VQEEVFDLFTDVHYS (Leishmania major) [SEQ ID NO: 117]
Concatenation affinity for HLA alleles of class II (HLA alleles of class II; LmlRAB-IIB peptides, Table 2): HLA-DRB1*03:01, HLA-DRB1*04:01,; also recorded: HLA-DRB1*04:05, HLA-DRB1*07:01,; also recorded: HLA-DRB1*15:01, HLA-DPA1*01:03/DPB1*02:01,; also recorded: HLA-DPA1*02:01/DPB1*05:01,; also recorded: HLA-DPA1*03:01/DPB1*04:02

VTSRKQEEVFDLFT (Leishmania major) [SEQ ID NO: 118]
Concatenation affinity for HLA alleles of class II (HLA alleles of class II; LmlRAB-IIB peptides, Table 2): HLA-DRB1*03:01, HLA-DPA1*01:03/DPB1*02:01,; also recorded: HLA-DPA1*02:01/DPB1*05:01,; also recorded: HLA-DPA1*03:01/HLA-DPB1*04:02,; also recorded: HLA-DPA1*02:01/HLA-DPB1*14:01

VVGRHLSIVADHMPH (Leishmania major) [SEQ ID NO: 84]
Concatenation affinity for HLA alleles of class II (HLA alleles of class II; LmLRAB-IIA peptides, Table 2): HLA-DRB1*01:01

VYVGRSLKAINAQMS (Leishmania major) [SEQ ID NO: 32]
Concatenation affinity for the HLA alleles of class II (HLA alleles of class II): HLA-DRB1*01:01, HLA-DRB1*04:05, HLA-DRB1*07:01,; also recorded: HLA-DRB4*01:01, HLA-DRB1*04:01, HLA-DRB1*09:01,; also recorded: HLA-DRB1*03:01, HLA-DRB1*11:01, HLA-DRB1*15:01,; also recorded: HLA-DRB1*08:02

WNVYVGRSL (Leishmania major) [SEQ ID NO: 53]
Affinity HLA alleles of class II (HLA alleles of class II): HLA-DRB1*04:05,; also recorded: HLA-DRB1*07:01,; also recorded: HLA-DRB1*09:01,; also recorded: HLA-DRB1*15:01,; also recorded: HLA-DRB5*01:01

WNVYVGRSLKAINAQ (Leishmania major) [SEQ ID NO: 30]
Concatenation affinity for the HLA alleles of class II (HLA alleles of class II): HLA-DRB5*01:01, HLA-DRB1*04:05, HLA-DPA1*03:01/; also recorded: DPB1*04:02, HLA-DRB1*01:01, HLA-DRB1*03:01,; also recorded: HLA-DRB1*04:01, HLA-DRB1*11:01, HLA-DRB1*07:01,; also recorded: HLA-DRB9*01:01, HLA-DRB1*15:01, HLA-DPA1*02:01/; also recorded: DPB1*01:01, HLA-DRB1*08:02

YFLTDEKTS (listed as Leishmania infantum) [SEQ ID NO: 150]
Concatenation affinity for HLA alleles of class II (HLA alleles of class II; PSA KC-2.6 core, Table 3): HLA-DRB1*04:01,; also recorded: HLA-DRB1*11:01

YFLTDEKTSLVYGDG (listed as Leishmania infantum) [SEQ ID NO: 145]
Concatenation affinity for HLA alleles of class II (HLA alleles of class II; PSA KC-2.6 peptides, Table 3): HLA-DRB1*01:01, HLA-DRB1*03:01,; also recorded: HLA-DRB1*04:01, HLA-DRB3*01:01,; also recorded: HLA-DRB3*02:02,; also recorded: HLA-DPA1*03:01/DPB1*04:02,; also recorded: HLA-DPA1*02:01/DPB1*14:01

YSEVSAKTK (Leishmania major) [SEQ ID NO: 127]
Concatenation affinity for HLA alleles of class II (HLA alleles of class II; LmlRAB-IIB core, Table 2): HLA-DRB1*07:01,; also recorded: HLA-DRB5*01:01

YSHSMIRDL (listed as Leishmania infantum) [SEQ ID NO: 178]
Concatenation affinity for HLA alleles of class II (HLA alleles of class II; PSA KC-2.7 core, Table 3): HLA-DRB1*04:05,; also recorded: HLA-DRB1*07:01,; also recorded: HLA-DRB1*09:01,; also recorded: HLA-DPA1*02:01/; also recorded: DPB1*01:01

YSHSMIRDLDFSNMG (listed as Leishmania infantum) [SEQ ID NO: 170]
Concatenation affinity for HLA alleles of class II (HLA alleles of class II; PSA KC-2.7 peptides, Table 3): HLA-DRB1*04:01, HLA-DRB1*04:05,; also recorded: HLA-DRB1*07:01, HLA-DRB1*08:02,; also recorded: HLA-DRB1*09:01, HLA-DRB1*12:01,; also recorded: HLA-DRB4*01:01

YVGRSLKAI (Leishmania major) [SEQ ID NO: 54]
Affinity HLA alleles of class II (HLA alleles of class II): HLA-DRB1*08:02,; also recorded: HLA-DPA1*02:01/; also recorded: DPB1*01:01

YVGRSLKAINAQMSM (Leishmania major) [SEQ ID NO: 33]
Concatenation affinity for the HLA alleles of class II (HLA alleles of class II): HLA-DRB1*04:01, HLA-DRB1*11:01, HLA-DRB1*08:02,; also recorded: HLA-DRB1*01:01, HLA-DRB1*04:05, HLA-DRB1*07:01,; also recorded: HLA-DRB1*09:01, HLA-DRB4*01:01, HLA-DRB5*01:01,
